Assay results from patent US20170143006A1, “Composition and Use Thereof” (DUPONT NUTRITION BIOSCIENCES APS, priority 2014, published 2017).
Where a name gives a salt, the structure may show the parent alone. Marks after values point to notes of the source that are not given here.

What was measured:
[1] = test system: ruminal fluid; experiment: In vitro fermentation in buffered goat ruminal fluid, 24 h: ruminal parameters (DM, pH, residue, digestibility, N-NH3); format: cell-based, Murciano-Granadina goats; conditions: 24 h incubation
From the text: (§1) Twelve mature Murciano-Granadina goats of similar body weight (46.97±2.5 kg BW) during late lactation were randomly split into 4 groups. Each group was fed with the same total mixed ration for 10 days. Each group included 4 g/kg of one of four types of betaine additive: • 1—Non Coated Betaine BS1 (Betafin S1, natural betaine, DuPont) • 2—Coated Betaine B52 (see preparative example 3) • 3—Coated Betaine B60 (see preparative example 4) • 4—Uncoated Betaine HCl
(§2) After an adaptation period to the diets including betaine of 10 days, ruminal fluid was obtained by means of an oesophagus probe from all goats. Ruminal fluid from goats (3 per treatment) was obtained just before feeding, transported to the laboratory and immediately strained/filtered across/through four layers of cheesecloth and mixed into an Erlenmeyer flask.
The in vitro fermentation was carried out by the following incubation process; the squeezed rumen fluid (after filtration) was mixed with Goering and Van Soest (1970) buffer solution in a 1:4 (v/v) ratio at 39° C. under continuous flow of CO2. […]
Bottles were sealed and incubated at 39° C. for 24 h. Gas measurements were recorded every hour, while pH was measured at the start and right after 24 h; crude fiber, digestibility, CH4 and volatile fatty acid (VFA) concentrations were determined after 24 h of incubation. […]

[2] = test system: ruminal fluid; experiment: In vitro fermentation in buffered goat ruminal fluid, 24 h: determination of volatile fatty acids (VFA); format: cell-based, Murciano-Granadina goats; conditions: after 24 h of incubation
Method: Determination of VFA can be based on the method previously described by Jouany, J. P., Volatile fatty acid and alcohol determination in digestive contents, silage juices, bacterial cultures and anaerobic fermentor contents; Sciences des Aliments, 2: 131-144, 1982.
For instance, samples are filtered through 0.45 μm cellulose syringe filters. One hundred microliters of an internal standard solution (0.4 g of 4-metil-valeric acid diluted in 100 ml of deionised water) and 0.1 ml of a preservative (a mix of 5% H3PO4 and 1% CIHg in deionised water) are added to 0.8 ml of filtrate. One μL from each sample is injected in a gas chromatograph (Fisons 8000 series, Milan, Italy) equipped with a split/splitless injector and FID detector. The separation of SOFA (short chain fatty acids) is made in a DB-FFAP capillary column (30 m×0.25 mm×0.25 μm of film thickness) J&W Scientific (USA). The carrier gas is N2 at a constant pressure of 120 KPa. Both detector and injector temperatures are set at 245° C. The initial oven temperature is set at 115° C. held for 5 min and increased to 230 at 8.5° C./min and finally maintained at that temperature for 10 min. SOFA are identified by comparing their retention times with a standard (46975-U de Supelco®, PA, USA).
as §1, §2
(§3) The in vitro fermentation was carried out by the following incubation process; the squeezed rumen fluid (after filtration) was mixed with Goering and Van Soest (1970) buffer solution in a 1:4 (v/v) ratio at 39° C. under continuous flow of CO2.
(§4) Samples of 1 g of total ration (0.4 g concentrate and 0.6 g alfalfa hay) plus betaine (0.015 g of each type) were accurately weighed and mixed into 125 mL bottles (ANKOM RF equipment). 50 mL of the buffered rumen fluid was added to each bottle under CO2 flow.
(§5) Bottles were sealed and incubated at 39° C. for 24 h. Gas measurements were recorded every hour, while pH was measured at the start and right after 24 h; crude fiber, digestibility, CH4 and volatile fatty acid (VFA) concentrations were determined after 24 h of incubation.

[3] = test system: ruminal fluid; experiment: In vitro fermentation in buffered goat ruminal fluid, 24 h: gas production (methane content CH4); format: cell-based, Murciano-Granadina goats; conditions: for Gas production / mL CH4: after 24 hrs of incubation; for CH4/S / mL CH4/S / mL gas/S: per S (substrate in g DM), 24 hrs
Method: The gas content can be analysed in a Focus Gas Chromatograph (Thermo, Milan, Italy) equipped with a split/splitless injector and a flame ionization detector. The separation can be performed in a GS-Q capillary column (J&W Scientific, USA) (30 m×0.32 mm i.d.). The carrier gas may be Helium at a constant flow of 1 ml/min. The samples may be injected with a split ratio of 1/100. The initial oven temperature can be set at 50° C. held for 1 min and increased to 150 at 50° C./min and finally maintained at that temperature for 2 min. Both detector and injector temperatures can be set at 200° C. An external standard (41.21% CO2 and 58.79% CH4) may be employed for quantification of methane content in samples.
as §1, §2, §3, §4, §5

[4] = pure form, white crystalline compound; cited from earlier work

SMILES | N—NH3, mg/L (ammonia nitrogen) [1] [mg/L] | Acetic acid [2] | Butyric acid [2] | Isobutyric acid [2] | Isovaleric acid [2] | N-Caproic acid [2] | N-Valeric acid [2] | Propionic acid [2] | Total VFA [2] [mmol/L] | Gas production [3] [mL] | mL CH4 [3] | CH4/S [3] [J] | mL CH4/S [3] | mL gas/S [3] [mL] | solubility in water and lower alcohols [4]
C[N+](C)(C)CC(=O)O [BHCl, Betaine HCl, reference compound] | 51.13 | 63.90 | 14.63^a | 0.61 | 0.95 | 0.19 | 1.64 | 18.07^b | 47.13 | 210.67 | 10.68^a mL | 437.48 | 11.10^a mL | 218.70 | –
C[N+](C)(C)CC(=O)[O-] [BS1, betaine] | 45.04 | 63.92 | 15.26^a | 0.51 | 0.66 | 0.18 | 1.55 | 17.92^b | 43.46 | 203.41 | 12.17^a mL | 498.54 | 12.65^a mL | 210.33 | –
C[N+](C)(C)CC(=O)[O-] [betaine, trimethylglycine] | – | – | – | – | – | – | – | – | – | – | – | – | – | – | readily soluble
